Usually MIC stands for the lowest concentration that inhibits growth of the organism. A low value points to a more susceptible organism.

Holding throughout (test): ≥ marks a high value that may be exact or a test limit, other limits are often not marked, values filed in µg/mL are converted to µM
Assay [1] relates to Proteus vulgaris KCTC 2433.
For assay [2], the system named is Bacillus subtilis KCTC 1918.
Assay [3] has as its system Trichosporon beigelii KCTC 7707.
For assay [4], the system named is Staphylococcus aureus KCTC 1621.
Assay [5] relates to Salmonella typhimurium KCTC 1926.
Assay [6] deals with Saccharomyces cerevisiae KCTC 7296.
Assay [7] has as its system Candida albicans TIMM 1768.
The test system of assay [8] is Klebsiella pneumoniae DSM 681.
The test system of assay [9] is Escherichia coli BL21AI.
Assay [10] relates to Escherichia coli DSM 10233.
The test system of assay [11] is Micrococcus luteus ATCC 10240.
Assay [12] relates to Pseudomonas aeruginosa KCTC 1637.
The subject of assay [13] is Bacillus subtilis KCTC 3068.
For assay [14], the system named is Staphylococcus epidermidis KCTC 1917.
The test system of assay [15] is Staphylococcus aureus IFO 12732.
The subject of assay [16] is Bacillus subtilis IFO 3143.
Assay [17] relates to Pseudomonas aeruginosa IFO 12582.
Assay [18] deals with Escherichia coli IFO 12734.
In assay [19] the test system is Escherichia coli KCTC 1682.
Assay [20] has as its system Pseudomonas aeruginosa.
For assay [21], the system named is Candida albicans ATCC 90028.
Assay [22] concerns Escherichia coli O157:H7 ATCC 43895.
Assay [23] deals with Escherichia coli.
The test system of assay [24] is Enterococcus faecium.
Assay [25] deals with Malassezia furfur KCTC 7744.
The subject of assay [26] is Pseudomonas aeruginosa ATCC 27853.
Assay [27] relates to Staphylococcus aureus ATCC 25923.
Assay [28] relates to Enterococcus faecium ATCC 19434.
Assay [29] has as its system Aspergillus flavus KCTC 1375.
In assay [30] the test system is Staphylococcus aureus.

Values after ≈ are worked out from the molar mass of the structure shown.

As to `CC[C@H](C)[C@H](NC(=O)CNC(=O)[C@H](CC(C)C)NC(=O)[C@H](CCCN=C(N)N)NC(=O)[C@H](CCCCN)NC(=O)[C@H](Cc1ccccc1)NC(=O)[C@@H](NC(=O)[C@H](CCCCN)NC(=O)[C@H](CCCCN)NC(=O)[C@H](C)N)C(C)C)C(=O)NCC(=O)N[C@@H](C)C(=O)N[C@H](C(=O)N[C@@H](CC(C)C)C(=O)N[C@@H](CCCCN)C(=O)N[C@H](C(=O)N[C@@H](CC(C)C)C(=O)N[C@@H](CCCCN)C(=O)N[C@@H](CCCCN)C(=O)NCC(=O)O)C(C)C)C(C)C` [AKKVFKRLGIGAVLKVLKKG], the MIC is 0.39 µM (≈ 0.84 µg/mL) in [1]; 0.78 µM (≈ 1.68 µg/mL) in [2]; 4.42 µM (≈ 9.52 µg/mL) in assay [3]; 1.56 µM (≈ 3.36 µg/mL) in [4]; 0.19 µM (≈ 0.409 µg/mL) in assay [5]; 6.25 µM (≈ 13.5 µg/mL) in [6]. Moreover, in assay [7], the MIC is 6.25 µM (≈ 13.5 µg/mL).
`CC[C@H](C)[C@H](NC(=O)[C@@H]1CCCN1C(=O)[C@H](CCCN=C(N)N)NC(=O)[C@@H]1CCCN1C(=O)[C@H](Cc1cnc[nH]1)NC(=O)[C@H](CO)NC(=O)[C@@H](NC(=O)[C@@H]1CCCN1C(=O)[C@H](CCCN=C(N)N)NC(=O)[C@@H]1CCCN1C(=O)[C@@H](NC(=O)[C@H](Cc1ccc(O)cc1)NC(=O)[C@@H]1CCCN1C(=O)[C@H](CCCN=C(N)N)NC(=O)[C@@H]1CCCN1C(=O)[C@H](CCCCN)NC(=O)CN)[C@@H](C)O)[C@@H](C)O)C(=O)N[C@@H](CCCN=C(N)N)C(=O)N[C@H](C(=O)O)C(C)C` [GKPRPYTPRPTSHPRPIRV]: the MIC in assay [8] was 3.62 µM (≈ 8 µg/mL); in assay [9], 3.62 µM (≈ 8 µg/mL); in assay [10], 0.904 µM (≈ 2 µg/mL); in assay [11], 0.904 µM (≈ 2 µg/mL).
For the compound `CC(C)C[C@H](NC(=O)[C@H](Cc1ccc(O)cc1)NC(=O)[C@H](Cc1cnc[nH]1)NC(=O)[C@@H](NC(=O)[C@H](CC(C)C)NC(=O)[C@H](C)NC(=O)[C@H](C)NC(=O)[C@H](CCCCN)NC(=O)[C@H](C)NC(=O)[C@@H](NC(=O)[C@H](Cc1cnc[nH]1)NC(=O)[C@H](CCCCN)NC(=O)[C@H](C)NC(=O)[C@@H](NC(=O)[C@H](Cc1cnc[nH]1)NC(=O)[C@H](C)NC(=O)[C@H](C)NC(=O)[C@H](CCCCN)NC(=O)[C@H](CCCCN)NC(=O)[C@H](Cc1ccccc1)NC(=O)[C@H](Cc1ccccc1)NC(=O)[C@H](CO)NC(=O)CNC(=O)[C@H](Cc1c[nH]c2ccccc12)NC(=O)CN)C(C)C)C(C)C)[C@@H](C)O)C(=O)O` [GWGSFFKKAAHVAKHVAKAALTHYL], the MIC in [12] turned out to be 1 µM (≈ 2.74 µg/mL); in assay [13], 4 µM (≈ 11 µg/mL); in assay [14] it was 0.5 µM (≈ 1.37 µg/mL); in [15], 1.46 µM (≈ 4 µg/mL); in [16] it was 0.365 µM (≈ 1 µg/mL); in assay [17], 1.46 µM (≈ 4 µg/mL). Further, the MIC in assay [18] is 0.73 µM (≈ 2 µg/mL); in [19], 1 µM (≈ 2.74 µg/mL); in assay [4], 0.5 µM (≈ 1.37 µg/mL); in assay [5], 1 µM (≈ 2.74 µg/mL).
On to `CC(C)C[C@H](NC(=O)[C@H](Cc1ccc(O)cc1)NC(=O)[C@H](Cc1cnc[nH]1)NC(=O)[C@@H](NC(=O)[C@H](CC(C)C)NC(=O)[C@H](C)NC(=O)[C@H](C)NC(=O)[C@H](CCCCN)NC(=O)CNC(=O)[C@@H](NC(=O)[C@H](Cc1cnc[nH]1)NC(=O)[C@H](CCCCN)NC(=O)CNC(=O)[C@@H](NC(=O)[C@H](Cc1cnc[nH]1)NC(=O)[C@H](C)NC(=O)[C@H](C)NC(=O)[C@H](CCCCN)NC(=O)[C@H](CCCCN)NC(=O)[C@H](Cc1ccccc1)NC(=O)[C@H](Cc1ccccc1)NC(=O)[C@@H](N)CO)C(C)C)C(C)C)[C@@H](C)O)C(N)=O` [SFFKKAAHVGKHVGKAALTHYL], for which the MIC is 28.3 µM (≈ 68.2 µg/mL) in [20]; 14.1 µM (≈ 34.1 µg/mL) in assay [21]; 20 µM (≈ 48.2 µg/mL) in assay [22]; 28.3 µM (≈ 68.2 µg/mL) in assay [23]; 28.3 µM (≈ 68.2 µg/mL) in assay [24]; 20 µM (≈ 48.2 µg/mL) in assay [25]. For the same compound, the MIC came out at 14.1 µM (≈ 34.1 µg/mL) in [26]; 20 µM (≈ 48.2 µg/mL) in assay [27]; 20 µM (≈ 48.2 µg/mL) in assay [28]; 20 µM (≈ 48.2 µg/mL) in assay [29]; 14.1 µM (≈ 34.1 µg/mL) in [30].

Source of the values: DBAASP.
